Assay results as given in ChEMBL document CHEMBL1153476, “Novel mannosyl derivatives of peptidoglycan monomer: Synthesis and biological evaluation of immunomodulatory properties” (2009).

Test system: Mus musculus
Experiment: Immunostimulatory activity against ovalbumin-stimulated immune response in mouse serum assessed as ratio of IgG1 to IgG2a at 200 ug, sc measured after 7 days by ELISA
Format: functional

For `CC(=O)N[C@@H]1[C@@H](O[C@H](C)C(=O)N[C@@H](C)C(=O)N[C@H](CCC(=O)N[C@H](CCC[C@H](N)C(N)=O)C(=O)N[C@H](C)C(=O)N[C@H](C)C(=O)O)C(N)=O)[C@H](O[C@@H]2O[C@H](CO)[C@@H](O)[C@H](O)[C@H]2NC(C)=O)[C@@H](CO)O[C@H]1O`, the Ratio was 2.6.
